These results are taken from US9738600B2, “ROR gamma (RORγ) modulators” (LEAD PHARMA CEL MODELS IP B.V., priority 2013, dated 2017).

Some results are limits rather than exact numbers.

This assay deals with T1, RORγ (Homo sapiens, UniProt P51449).
T1 sequence (P51449 269-508 limits assumed): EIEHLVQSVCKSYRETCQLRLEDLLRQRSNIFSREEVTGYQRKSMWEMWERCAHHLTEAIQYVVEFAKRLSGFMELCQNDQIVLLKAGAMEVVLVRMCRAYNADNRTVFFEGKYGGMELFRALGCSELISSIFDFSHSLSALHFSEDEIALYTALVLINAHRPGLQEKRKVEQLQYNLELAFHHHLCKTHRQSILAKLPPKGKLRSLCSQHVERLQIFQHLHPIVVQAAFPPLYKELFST
Briefly: RORγ GAL4 reporter gene assay. Conditions: mean pIC50, inhibition of RORγ (GAL4-RORγ-LBD) in 293FT cells, luciferase readout, overnight incubation.
Source text: The RORγ ligand-binding domain (LBD) was fused to the yeast GAL4 DNA binding domain (DBD) and placed under the control of the human cytomegalovirus (CMV) immediate early promoter, using expression vector pFN26A (Promega) and standard recombinant DNA cloning methods.
To monitor the inhibitory effect of compounds on RORγ, a transcriptional reporter construct was used. The pGL4.35 vector (Promega) contains nine copies of the GAL4 Upstream Activator Sequence (UAS). This sequence drives the transcription of the luciferase reporter gene luc2P in response to binding of a fusion protein containing the GAL4 DNA binding domain, as for example expressed by the GAL4-RORγ-LBD and GAL4-VP16 expression vectors described above.
The day after transfection, cells were plated into 96 well plates, test compound was added and the plates were incubated overnight. Subsequently, the firefly luciferase activity was quantified using luciferase detection reagent and luminescence readout.
1500 μL of this reagent mixture was added to 5 μg of GAL4 fusion protein expression vector and 5 μg of the transcriptional reporter construct, and incubated at RT for 20 minutes.
Subsequently, the cells were washed with Phosphate Buffered Saline (PBS) (Lonza), after which the PBS was removed. To dissociate the cells, 1 ml of TrypLE Express (Invitrogen) was added to the flask, followed by incubation at RT until the cells visually started to detach. Cells were collected in 5 mL of assay medium (DMEM culture medium (Lonza), 10% dialyzed FBS (Invitrogen) and Pen/Strep (Lonza)) to achieve a single cell suspension. 10×10^6 cells were spun down and re-suspended in 10 mL of assay medium. Subsequently, the cell suspension was added to the transfection mix tube, and then transferred as a whole to a T75 flask (Greiner), followed by overnight (16-24 hours) incubation at 37° C. and 5% CO2.
For compound screening, the cells were harvested (as described above) and counted. […] 80 μL of cell suspension (60,000 cells) was plated per well into a white, flat bottom, tissue culture treated, 96 well screening plates (Greiner).
Test compounds were diluted, starting from a 10 mM dimethylsulfoxide (DMSO) stock solution, to serial dilutions in DMSO at 500× the final test concentration. Subsequently, these solutions were diluted to 5× the final test concentration in two 10-fold-dilution steps in assay medium. The final DMSO concentration of the 5× test compound solution was 1%. 20 μL of the 5× test compound solution was added to each test well of the 96 well plate previously plated with 80 μl cell suspension, resulting in the final test concentration with 0.2% DMSO.
The plates were incubated overnight (16-24 hours) at 37° C. and 5% CO2.
For the luciferase readout, the luciferase reagent (Britelite Plus, Perkin Elmer) was brought to RT. […] The luciferase luminescence signal was measured using a Wallac Victor Microplate Reader (Perkin Elmer).
The half maximum inhibitory concentration (IC50) values for the test compounds were calculated from the luciferase signal using GraphPad Prism software (GraphPad Software).
`CCOC(c1ccc(NC(=O)Cc2ccc(S(=O)(=O)CC3CC3)cc2)cc1)(C(F)(F)F)C(F)(F)F` [Example 53, 2-(4-((cyclopropylmethyl)sulfonyl)phenyl)-N-(4-(2-ethoxy-1,1,1,3,3,3-hexafluoropropan-2-yl)phenyl)acetamide] gave an IC50 of at most 100 nM.

For the molecule `COC(c1ccc(NC(=O)Cc2ccc(S(=O)(=O)CC3CC3)cc2)cc1)(C(F)(F)F)C(F)(F)F` [Example 54, 2-(4-((cyclopropylmethyl)sulfonyl)phenyl)-N-(4-(1,1,1,3,3,3-hexafluoro-2-methoxypropan-2-yl)phenyl)acetamide], the IC50 is at most 100 nM. As for `COc1cc(C(O)(C(F)(F)F)C(F)(F)F)ccc1NC(=O)Cc1ccc(S(=O)(=O)CC2CC2)cc1` [Example 55, 2-(4-((cyclopropylmethyl)sulfonyl)phenyl)-N-(4-(1,1,1,3,3,3-hexafluoro-2-hydroxypropan-2-yl)-2-methoxyphenyl)acetamide], the half-maximal inhibitory concentration (IC50) is at most 100 nM. The figure for `COc1cc(NC(=O)Cc2ccc(S(=O)(=O)CC3CC3)cc2)ccc1C(O)(C(F)(F)F)C(F)(F)F` [Example 56, 2-(4-((cyclopropylmethyl)sulfonyl)phenyl)-N-(4-(1,1,1,3,3,3-hexafluoro-2-hydroxypropan-2-yl)-3-methoxyphenyl)acetamide] is at most 1000 nM. The figure for `Nc1cc(C(O)(C(F)(F)F)C(F)(F)F)ccc1NC(=O)Cc1ccc(S(=O)(=O)CC2CC2)cc1` [Example 57, N-(2-amino-4-(1,1,1,3,3,3-hexafluoro-2-hydroxypropan-2-yl)phenyl)-2-(4-((cyclopropylmethyl)sulfonyl)phenyl)acetamide] is at most 1000 nM; for `O=C(Cc1ccc(S(=O)(=O)CC2CC2)cc1)Nc1ccc(C(OCCC2CC2)(C(F)(F)F)C(F)(F)F)cc1` [Example 58, N-(4-(2-(2-cyclopropylethoxy)-1,1,1,3,3,3-hexafluoropropan-2-yl)phenyl)-2-(4-((cyclopropylmethyl)sulfonyl)phenyl)acetamide] it is at most 1000 nM.

Regarding `O=C(Cc1ccc(S(=O)(=O)CC2CC2)cc1)Nc1ccc(C(OCc2ccccc2)(C(F)(F)F)C(F)(F)F)cc1` [Example 59, N-(4-(2-(benzyloxy)-1,1,1,3,3,3-hexafluoropropan-2-yl)phenyl)-2-(4-((cyclopropylmethyl)sulfonyl)phenyl)acetamide], the concentration for half-maximal inhibition (IC50) was at most 100 nM.

On to `CCCOC(c1ccc(NC(=O)Cc2ccc(S(=O)(=O)CC3CC3)cc2)cc1)(C(F)(F)F)C(F)(F)F` [Example 60, 2-(4-((cyclopropylmethyl)sulfonyl)phenyl)-N-(4-(1,1,1,3,3,3-hexafluoro-2-propoxypropan-2-yl)phenyl)acetamide], for which the IC50 was at most 10 nM. The figure for `CCCOC(c1ccc(NC(=O)Cc2ccc(S(=O)(=O)NC3CC3)cc2)cc1)(C(F)(F)F)C(F)(F)F` [Example 61, 2-(4-(N-cyclopropylsulfamoyl)phenyl)-N-(4-(1,1,1,3,3,3-hexafluoro-2-propoxypropan-2-yl)phenyl)acetamide] is at most 100 nM; for `O=C(Cc1ccc(S(=O)(=O)CC2CC2)cc1)Nc1ccc(C(O)(C(F)(F)F)C(F)(F)F)c(Cl)c1` [Example 62, N-(3-chloro-4-(1,1,1,3,3,3-hexafluoro-2-hydroxypropan-2-yl)phenyl)-2-(4-((cyclopropylmethyl)sulfonyl)phenyl)acetamide] it is at most 100 nM; for `CCCC(O)(c1ccc(NC(=O)Cc2ccc(S(=O)(=O)CC)cc2)cc1)C(F)(F)F` (stereo not shown) [Example 63, 2-(4-(ethylsulfonyl)phenyl)-N-(4-(1,1,1-trifluoro-2-hydroxypentan-2-yl)phenyl)acetamide] it is at most 1000 nM. The result for `CCCCC(O)(c1ccc(NC(=O)Cc2ccc(S(=O)(=O)CC3CC3)cc2)cc1)C(F)(F)F` (stereo not shown) [Example 64, 2-(4-((cyclopropylmethyl)sulfonyl)phenyl)-N-(4-(1,1,1-trifluoro-2-hydroxyhexan-2-yl)phenyl)acetamide] reads at most 10 nM; that for `CCS(=O)(=O)c1ccc(CC(=O)Nc2ccc(C(O)(C(C)C)C(F)(F)F)cc2)cc1` (stereo not shown) [Example 65, 2-(4-(ethylsulfonyl)phenyl)-N-(4-(1,1,1-trifluoro-2-hydroxy-3-methylbutan-2-yl)phenyl)acetamide], at most 1000 nM; that for `CCS(=O)(=O)c1ccc(CC(=O)Nc2ccc(C(O)(CC(C)C)C(F)(F)F)cc2)cc1` (stereo not shown) [Example 66, 2-(4-(ethylsulfonyl)phenyl)-N-(4-(1,1,1-trifluoro-2-hydroxy-4-methylpentan-2-yl)phenyl)acetamide], at most 100 nM.

On to `O=C(Cc1ccc(S(=O)(=O)CC2CC2)cc1)Nc1ccc(C(O)(C2CC2)C(F)(F)F)cc1` (stereo not shown) [Example 67, N-(4-(1-cyclopropyl-2,2,2-trifluoro-1-hydroxyethyl)phenyl)-2-(4-((cyclopropylmethyl)sulfonyl)phenyl)acetamide], for which the IC50 was at most 100 nM. The figure for `O=C(Cc1ccc(S(=O)(=O)CC2CC2)cc1)Nc1ccc(C(O)(CC2CCCC2)C(F)(F)F)cc1` (stereo not shown) [Example 68, N-(4-(3-cyclopentyl-1,1,1-trifluoro-2-hydroxypropan-2-yl)phenyl)-2-(4-((cyclopropylmethyl)sulfonyl)phenyl)acetamide] is at most 100 nM. The result for `O=C(Cc1ccc(S(=O)(=O)CC2CC2)cc1)Nc1ccc(C(O)(CC2CCCCC2)C(F)(F)F)cc1` (stereo not shown) [Example 69, N-(4-(3-cyclohexyl-1,1,1-trifluoro-2-hydroxypropan-2-yl)phenyl)-2-(4-((cyclopropylmethyl)sulfonyl)phenyl)acetamide] reads at most 100 nM; that for `O=C(Cc1ccc(S(=O)(=O)CC2CC2)cc1)Nc1ccc(C(O)C(F)(F)F)cc1` (stereo not shown) [Example 70, 2-(4-((cyclopropylmethyl)sulfonyl)phenyl)-N-(4-(2,2,2-trifluoro-1-hydroxyethyl)phenyl)acetamide], at most 1000 nM. The figure for `CC(O)(c1ccc(NC(=O)Cc2ccc(S(=O)(=O)CC3CC3)cc2)cc1)C(F)(F)F` (stereo not shown) [Example 71, 2-(4-((cyclopropylmethyl)sulfonyl)phenyl)-N-(4-(1,1,1-trifluoro-2-hydroxypropan-2-yl)phenyl)acetamide] is at most 100 nM; for `CCCCC(O)(c1ccc(NC(=O)Cc2ccc(S(=O)(=O)CC)cc2)cc1)C(F)(F)F` (stereo not shown) [Example 72, 2-(4-(ethylsulfonyl)phenyl)-N-(4-(1,1,1-trifluoro-2-hydroxyhexan-2-yl)phenyl)acetamide] it is at most 1000 nM. With `CCS(=O)(=O)c1ccc(CC(=O)Nc2ccc(C(O)(C3CC3)C(F)(F)F)cc2)cc1` (stereo not shown) [Example 73, N-(4-(1-cyclopropyl-2,2,2-trifluoro-1-hydroxyethyl)phenyl)-2-(4-(ethylsulfonyl)phenyl)acetamide], the IC50 is at most 1000 nM. The figure for `CCS(=O)(=O)c1ccc(CC(=O)Nc2ccc(C(O)(CC3CCCCC3)C(F)(F)F)cc2)cc1` (stereo not shown) [Example 74, N-(4-(3-cyclohexyl-1,1,1-trifluoro-2-hydroxypropan-2-yl)phenyl)-2-(4-(ethylsulfonyl)phenyl)acetamide] is at most 1000 nM. The result for `O=C(Cc1ccc(S(=O)(=O)CC2CC2)cc1)Nc1ccc(C(O)(C2CCCC2)C(F)(F)F)cc1` (stereo not shown) [Example 75, N-(4-(1-cyclopentyl-2,2,2-trifluoro-1-hydroxyethyl)phenyl)-2-(4-((cyclopropylmethyl)sulfonyl)phenyl)acetamide] reads at most 10 nM; that for `CC(C)CC(O)(c1ccc(NC(=O)Cc2ccc(S(=O)(=O)NC3CC3)cc2)cc1)C(F)(F)F` (stereo not shown) [Example 76, 2-(4-(N-cyclopropylsulfamoyl)phenyl)-N-(4-(1,1,1-trifluoro-2-hydroxy-4-methylpentan-2-yl)phenyl)acetamide], at most 100 nM; that for `CC(O)(c1ccc(NC(=O)Cc2ccc(S(=O)(=O)NC3CC3)cc2)cc1)C(F)(F)F` (stereo not shown) [Example 78, 2-(4-(N-cyclopropylsulfamoyl)phenyl)-N-(4-(1,1,1-trifluoro-2-hydroxypropan-2-yl)phenyl)acetamide], at most 1000 nM.

`CCC(O)(c1ccc(NC(=O)Cc2ccc(S(=O)(=O)NC3CC3)cc2)cc1)C(F)(F)F` (stereo not shown) [Example 79, 2-(4-(N-cyclopropylsulfamoyl)phenyl)-N-(4-(1,1,1-trifluoro-2-hydroxybutan-2-yl)phenyl)acetamide] registered an IC50 of at most 1000 nM. The result for `CCCC(O)(c1ccc(NC(=O)Cc2ccc(S(=O)(=O)NC3CC3)cc2)cc1)C(F)(F)F` (stereo not shown) [Example 80, 2-(4-(N-cyclopropylsulfamoyl)phenyl)-N-(4-(1,1,1-trifluoro-2-hydroxypentan-2-yl)phenyl)acetamide] reads at most 1000 nM; that for `CC(C)(C)CC(O)(c1ccc(NC(=O)Cc2ccc(S(=O)(=O)CC3CC3)cc2)cc1)C(F)(F)F` (stereo not shown) [Example 82, 2-(4-((cyclopropylmethyl)sulfonyl)phenyl)-N-(4-(1,1,1-trifluoro-2-hydroxy-4,4-dimethylpentan-2-yl)phenyl)acetamide], at most 10 nM; that for `CCC(O)(c1ccc(NC(=O)Cc2ccc(S(=O)(=O)CC3CC3)cc2)cc1)C(F)(F)F` (stereo not shown) [Example 83, 2-(4-((cyclopropylmethyl)sulfonyl)phenyl)-N-(4-(1,1,1-trifluoro-2-hydroxybutan-2-yl)phenyl)acetamide], at most 10 nM.

Consider `CCS(=O)(=O)c1ccc(CC(=O)Nc2ccc(C(O)(C(F)(F)F)C(F)(F)F)c(Cl)c2)cc1` [Example 84, N-(3-chloro-4-(1,1,1,3,3,3-hexafluoro-2-hydroxypropan-2-yl)phenyl)-2-(4-(ethylsulfonyl)phenyl)acetamide], for which the IC50 was at most 1000 nM.

In the case of `CCS(=O)(=O)c1ccc(CC(=O)Nc2ccc(C(O)(C3CCCC3)C(F)(F)F)cc2)cc1` (stereo not shown) [Example 85, N-(4-(1-cyclopentyl-2,2,2-trifluoro-1-hydroxyethyl)phenyl)-2-(4-(ethylsulfonyl)phenyl)acetamide], the IC50 was at most 1000 nM.

What is called IC50 is the concentration that inhibits the measured activity by half. A lower IC50 goes with higher potency.
